Experimental data reported in patent publication US6369032B1, “Method for treating allergies” (Ortho-McNeil Pharmaceutical, Inc., priority 2000, dated 2002).

Experiments:
[1] = test system: ragweed allergen-specific CD4 T cells; assay: Ex vivo human T cell proliferation assay, PBMC of allergic donors cultured with ragweed extracts (3H-thymidine incorporation); format: cell-based; conditions: PBMC from ragweed-allergic donors, 7 days culture, titrated doses of LHVS; two donors tested
Protocol: (§1) Reagents. Glycerinated crude allergen extracts of house dust mites (Dermataphagoides pteronyssinus, Dermataphagoides farinae) and ragweed [Ambrosia trifida (giant), Ambrosia artemisiifolia (short)] were purchased from Hollister-Stier Laboratories (Minneapolis, Minn.). Concanavalin A (ConA) was purchased from Calbiochem (La Jolla, Calif.).
(§2) Donors. All allergic donors were prescreened for their specific allergies using RAST tests. The HLA class II haplotypes of these donors were determined using PCR.
(§3) Cell culture. Human peripheral blood mononuclear cells (PBMC) were purified from blood of allergic donors using Ficoll-Hypaque gradient followed by washes with phosphate buffered saline (PBS). PBMC were cultured in triplicate or duplicate at 0.5-1.0×10^6 cells/well with titrated doses of allergen extracts, in the presence or absence of a known cathepsin S inhibitor, LHVS (morpholinurea-leucine-homo-phenylalanine-vinylsulfonephenyl) (Palmer et al. (1995), J. Med. Chem. 38:3193 and Riese et al. (1996), Immunity 4:357). Serial diluted stock solutions of LHVS were first made in 100% DMSO and then diluted 1:15 in 40% Hydroxypropynyl cyclodextrin (HPCD). Three microliters of LHVS in HPCD was added into PBMC cultures (200 μL/well). […] Eighteen hours later, cells were harvested using a Filtermate Harvester (Packard) and counted for ^3H-TdR incorporation on Topcount (Packard). […]

[2] = test system: HDM allergen-specific CD4 T cells; assay: Ex vivo human T cell proliferation assay, PBMC of allergic donors cultured with house dust mite extracts (3H-thymidine incorporation); format: cell-based; conditions: PBMC from HDM-allergic donors, 7 days culture, titrated doses of LHVS; all four donors tested
Protocol: as §1, §2, §3

[3] = test system: T cells stimulated with ConA, a pan-T cell mitogen; assay: T cell proliferative responses induced by ConA (specificity control); format: cell-based, human; conditions: PBMC from allergic donors
From the text: as §1
Cell culture. Human peripheral blood mononuclear cells (PBMC) were purified from blood of allergic donors using Ficoll-Hypaque gradient followed by washes with phosphate buffered saline (PBS). PBMC were cultured in triplicate or duplicate at 0.5-1.0×10^6 cells/well with titrated doses of allergen extracts, in the presence or absence of a known cathepsin S inhibitor, LHVS (morpholinurea-leucine-homo-phenylalanine-vinylsulfonephenyl) (Palmer et al. (1995), J. Med. Chem. 38:3193 and Riese et al. (1996), Immunity 4:357). Serial diluted stock solutions of LHVS were first made in 100% DMSO and then diluted 1:15 in 40% Hydroxypropynyl cyclodextrin (HPCD). Three microliters of LHVS in HPCD was added into PBMC cultures (200 μL/well). After 6 days of culture, 1 μCi/well of ^3H-thymidine (TdR) was added. Eighteen hours later, cells were harvested using a Filtermate Harvester (Packard) and counted for ^3H-TdR incorporation on Topcount (Packard). […]

[4] = test system: cathepsin S (degradation of invariant chain Ii); assay: Monitoring cathepsin S inhibition in human blood: p10Ii fragment of invariant chain in PBMC by Western blot; format: cell-based; conditions: PBMC from human blood, incubation for 24 h, SDS-PAGE / Western blot
Protocol: The effect of in vivo administration of cathepsin S inhibitors, in a clinical trial setting, can be monitored by measuring accumulation of an intermediate degradation product of invariant chain (Ii), i.e. the p10Ii fragment, in blood of dosed subjects. After administration of a cathepsin inhibitor for a certain period of time, for example, 0.01 to 50 mg/kg/day to result in a blood concentration of preferably 1 nM-10 μM for 16-30 h, blood is drawn and white blood cells are purified, e.g. either by lysis of red blood cells or by a Ficoll-Hypaque gradient centrifugation. Whole cell lysates of WBC are then made and analyzed by either a Western blot assay or an ELISA assay. For the Western blot assay, cell lysates are first resolved on SDS-PAGE gels. After transferring to nitrocellulose membranes, Ii and its intermediate degradation products, including the p10Ii, can be detected using a mouse mAb against Ii, e.g. Pin1.1, or rabbit polyclonal antibodies or a mouse monoclonal antibody specific for the p10Ii fragment or against the entire p10Ii fragment. For ELISA assay, a pair of antibodies against Ii, including Pin1.1, and a rabbit polyclonal antibody against C-terminal of p10Ii, can be used. The same assay can also be applied to monitor the effect of cathepsin S inhibitors in vivo in animal studies, for example in monkeys, dogs, pigs, rabbits, guinea pigs, and rodents. […]

SMILES: CC(C)C[C@H](NC(=O)N1CCOCC1)C(=O)N[C@H](/C=C/S(=O)(=O)c1ccccc1)CCc1ccccc1 [LHVS, 4-morpholinecarboxamide, N-[(1S)-3-methyl-1-[[[(1S,2E)-1-(2-phenylethyl)-3-(phenylsulfonyl)-2-propenyl]amino]carbonyl]butyl]-]
- T cell proliferation induced by ragweed extracts (short and giant) [1]: strongly inhibited
- T cell proliferation induced by house dust mite extracts (Der p, Der f) [2]: strongly inhibited
- T cell proliferative responses induced by ConA [3]: not affected
- p10Ii fragment (block in the degradation of Ii) [4]: the p10Ii fragment was seen
